Results reported in publication PMC7794939, “Discovery of Monoacylglycerol Lipase (MAGL) Inhibitors Based on a Pharmacophore-Guided Virtual Screening Study” (Molecules, 2020).

These molecules were tested against T1, Human recombinant MAGL (Homo sapiens, UniProt Q99685) (assay: MAGL enzyme inhibition assay (4-NPA substrate, absorbance 405 nm)). Conditions: 30 min, rt, pH 7.2.
T1 construct: purchased Cayman Chemical (Ann Arbor, MI, USA)
T1 sequence (Q99685 1-303): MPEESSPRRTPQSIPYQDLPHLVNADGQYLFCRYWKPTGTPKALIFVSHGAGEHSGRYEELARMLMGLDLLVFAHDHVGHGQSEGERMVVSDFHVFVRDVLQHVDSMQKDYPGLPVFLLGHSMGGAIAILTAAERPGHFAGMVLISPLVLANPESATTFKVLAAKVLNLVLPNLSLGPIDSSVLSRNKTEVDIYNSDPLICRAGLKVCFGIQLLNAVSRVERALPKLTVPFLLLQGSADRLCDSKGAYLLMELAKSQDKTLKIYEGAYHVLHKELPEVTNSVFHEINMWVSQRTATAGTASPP
Assay type: biochemical
Experimental: Human recombinant MAGL and 4-nitrophenyl acetate substrate (4-NPA) were bought from Cayman Chemical (Ann Arbor, MI, USA). […] The IC50 values were produced in 96-well microtiter plates. The MAGL reaction was carried out at rt at a final volume of 200 µL in 10 mM Tris buffer, pH 7.2, containing 1 mM EDTA and 0.1 mg/mL BSA. […] The reaction was started by adding 40 µL of MAGL (11 ng/well) in such a way that the assay was linear over 30 min. […] Two more reactions were carried out: one reaction containing no compounds and the second one containing neither enzyme nor inhibitor.

Structure (SMILES) | IC50 [µM]
O=C(c1ccc(Cl)cc1)C1CCN(C(=O)c2cccc(O)c2)CC1 [Compound 17b, reference compound] | 0.9 ± 0.08
CC(C)c1ccc(OCC(=O)Nc2ccc(-c3nc4ccccc4c(=O)o3)cc2)cc1 [VS3] | 79.4 ± 6.3
Cc1cc(=O)[nH]c(-c2ccc(NS(=O)(=O)c3ccc(F)cc3Cl)cc2)n1 [VS1] | 34.7 ± 2.4
O=C(c1ccco1)N1CCN(C2=CC(=O)N(c3cccc(Cl)c3)C2=O)CC1 [VS2] | 48.9 ± 4.2

The next lines start with the values.

IC50 [µM] | Structure (SMILES)
> 200 | O=C(Nc1nnc(C2CC(=O)N(c3ccccc3)C2)s1)c1cccc(Br)c1 (stereo not shown) [VS6]
> 200 | O=C1c2ccc(-c3nc4ccccc4c(=O)o3)cc2C(=O)N1Cc1ccc(Cl)cc1 [VS5]
138 ± 11 | O=C(c1ccco1)N1CCN(C2CC(=O)N(c3cccc(Cl)c3)C2=O)CC1 (stereo not shown) [VS4]

The molecules below were run against T1, Human recombinant MAGL (assay: MAGL inhibition after preincubation of compound with enzyme (reversibility)). Conditions: preincubated with the enzyme for 0, 30 and 60 min before adding the substrate.
Assay type: biochemical
Experimental: (§1) Furthermore, with the aim of establishing whether the mechanism of inhibition was reversible or irreversible, the effects of preincubation on the inhibitory activity of compounds VS1 and VS2 were evaluated. In this assay, the compounds were preincubated with the enzyme for 0, 30 and 60 min before adding the substrate to start the enzymatic reaction. An irreversible inhibitor should show a higher potency after longer incubation times, whereas a reversible inhibitor should display a constant inhibition potency that is independent from the incubation time. […] Taken together, these experimental studies, aimed at better characterizing the mode of action of compounds VS1 and VS2, further supported the reliability of the binding mode predicted for the two ligands.
Human recombinant MAGL and 4-nitrophenyl acetate substrate (4-NPA) were bought from Cayman Chemical (Ann Arbor, MI, USA). […] After the reaction had progressed for 30 min, absorbance values were measured by using a VictorX3 instrument (PerkinElmer, Waltham, MA, USA) at 405 nm. […] To remove possible false positive results, a blank analysis was performed for each compound concentration and the final absorbance results were obtained detracting the absorbance produced by the presence of all the components except MAGL in the same conditions.

Structure (SMILES) | Effect of preincubation time on inhibitory potency (reversible or irreversible mechanism)
Cc1cc(=O)[nH]c(-c2ccc(NS(=O)(=O)c3ccc(F)cc3Cl)cc2)n1 [VS1] | did not show any significant increase in inhibitory potency at longer incubation times
O=C(c1ccco1)N1CCN(C2=CC(=O)N(c3cccc(Cl)c3)C2=O)CC1 [VS2] | did not show any significant increase in inhibitory potency at longer incubation times

What follows are molecules tested against T1, Human recombinant MAGL (assay: MAGL inhibition with or without the thiol-containing agent DTT). Conditions: assayed in the absence of DTT; read-out: IC50 in the absence of DTT.
Assay type: biochemical
Experimental: as §1
Human recombinant MAGL and 4-nitrophenyl acetate substrate (4-NPA) were bought from Cayman Chemical (Ann Arbor, MI, USA). The reversible compound 17b reported by Granchi et al. in 2016 was synthesized in our laboratory and used as reference compound [19]. Compound 3l was synthesized in our laboratory according to the procedure reported by Aida et al. and used as reference compound. The IC50 values were produced in 96-well microtiter plates. The MAGL reaction was carried out at rt at a final volume of 200 µL in 10 mM Tris buffer, pH 7.2, containing 1 mM EDTA and 0.1 mg/mL BSA. A total of 150 µL of 4-NPA 133.3 µM was added to 10 µL of DMSO containing the appropriate amount of compound. The reaction was started by adding 40 µL of MAGL (11 ng/well) in such a way that the assay was linear over 30 min. After the reaction had progressed for 30 min, absorbance values were measured by using a VictorX3 instrument (PerkinElmer, Waltham, MA, USA) at 405 nm. Two more reactions were carried out: one reaction containing no compounds and the second one containing neither enzyme nor inhibitor. To remove possible false positive results, a blank analysis was performed for each compound concentration and the final absorbance results were obtained detracting the absorbance produced by the presence of all the components except MAGL in the same conditions.

IC50 [µM] | Structure (SMILES)
35.4 | Cc1cc(=O)[nH]c(-c2ccc(NS(=O)(=O)c3ccc(F)cc3Cl)cc2)n1 [VS1]
47.5 | O=C(c1ccco1)N1CCN(C2=CC(=O)N(c3cccc(Cl)c3)C2=O)CC1 [VS2]

Same assay, conditions: assayed in the presence of 10 µM DTT; read-out: IC50 in the presence of DTT

IC50 [µM] | Structure (SMILES)
34.1 | Cc1cc(=O)[nH]c(-c2ccc(NS(=O)(=O)c3ccc(F)cc3Cl)cc2)n1 [VS1]
49.5 | O=C(c1ccco1)N1CCN(C2=CC(=O)N(c3cccc(Cl)c3)C2=O)CC1 [VS2]
